Assay results taken from patent publication US10711040B2, “Low substituted polymyxins and compositions thereof” (priority 2014, dated 2020).
Where “and” joins values, the source holds several entries; their conditions need not be identical. Equal values may be shown once.

Experiments:
[1] = Tolerability in mice: clinical signs of toxicity, body weight, clinical scoring; conditions: mouse, in vivo
Procedure: (§1) Mice were treated with a mixture comprising 93% mono(N^γ-bis-sulfomethyl) Polymyxin E1 or CMS for 5 days and were monitored for clinical signs of toxicity and urine concentrations of KIM-1. […] The normal range of KIM-1 in mouse urine, as stated in the ELISA kit instruction, is 456-8048 pg/ml.
(§2) The mixtures were received as dry powder and were dissolved in the vials in sterile saline to the concentration stated in table 1, immediately prior to injection.
(§3) Once a day for 5 days, mice were treated subcutaneously in the neck region with 0.2 ml corresponding to the doses stated in Table 1. The dosing was based on a mean weight of 28 g.
All the tested mixtures were well tolerated by mice as determined by body weight and clinical scoring.

[2] = system: Pseudomonas aeruginosa (strain PAX11045); assay: Mouse model with pulmonary infection of Pseudomonas aeruginosa; assay type: in vivo; parameters: key to Clinical score at T = 19 / Clinical score at T = 22: 0: healthy; 1: minor clinical signs of infection and inflammation like piloerection in the skin, distress and social withdrawal; 2: moderate signs of infection like changed body position, changes in pattern of movement, lack of curiosity or changed activity.; 3: severe signs of infection like stiff movements, forced ventilation,; 4: severe pain, mouse was sacrificed immediately to minimize suffering; 5: The mouse was dead; conditions: dose 10 mg/kg, peritoneal
Procedure: A mouse model with pulmonary infections of Pseudomonas aeruginosa (strain PAX11045) were treated with peritoneal administration of Polymyxin E1, CMS E1 and mono bis-sulfomethylated Polymyxin E1. CFU is the calculated number of colony forming units in the lung tissue after 22 hours except for the non-treatment group of mice.

[3] = system: KIM-1 (kidney injury molecule-1); assay: Nephrotoxicity in mice, urinary KIM-1 by ELISA; assay type: in vivo; conditions: 80 mg/kg subcutaneously once a day for 5 days; individual mice
Procedure: Nephrotoxicity was measured using KIM-1 (kidney injury molecule-1) as a biomarker of acute tubular necrosis.
as §1, §2, §3
Urine samples were collected at 24 hrs after the 2nd dosing and 4 hrs after the 5th dosing. Samples were stored at −80° C. until analysed for KIM-1 concentrations
Urine samples were thawed, centrifuged for 5 min at 2000 g and diluted ×50 prior to performing the ELISA according the instruction in the Quantikine ELISA mouse TIM-1/KIM-1/HAVCR Immunoassay kit.

Colistimethate sodium [CMS]
clinical signs of toxicity [1]: no clinical signs of toxicity

Polymyxin E1 [Polymyxin-E1]
Clinical score at T = 19 ([2]; individual mice): 3 (6×) and 2 | Clinical score at T = 22 ([2]; individual mice): 4 (2×) and 2 and 3 (4×) | mean log10 CFU ([2]; lung tissue after 22 hours): 4.43 log10 CFU | log10 CFU lung ([2]; lung tissue after 22 hours, individual mice, 10 mg/kg): 5.65 log10 CFU and 4.08 log10 CFU and 6.06 log10 CFU and 4.05 log10 CFU and 3.78 log10 CFU and 3.70 log10 CFU and 3.72 log10 CFU

Gentamicin
Urinary KIM-1 concentrations after 5 doses [3]: 12850 pg/mL and 5900 pg/mL and 5750 pg/mL
